Source: publication PMC8552049 (SLAS discovery : advancing life sciences R & D, 2021)
Where two headings read alike, the source gives them in different places.

Assays:
RGS7/Gβ5/R7BP complex [1] = target: T1, RGS7/Gβ5/R7BP complex (Homo sapiens, UniProt P49802); experiment: TR-FRET assay of RGS7/Gβ5 interaction with R7BP, inhibitors mode; format: binding
T1 sequence (P49802 1-495): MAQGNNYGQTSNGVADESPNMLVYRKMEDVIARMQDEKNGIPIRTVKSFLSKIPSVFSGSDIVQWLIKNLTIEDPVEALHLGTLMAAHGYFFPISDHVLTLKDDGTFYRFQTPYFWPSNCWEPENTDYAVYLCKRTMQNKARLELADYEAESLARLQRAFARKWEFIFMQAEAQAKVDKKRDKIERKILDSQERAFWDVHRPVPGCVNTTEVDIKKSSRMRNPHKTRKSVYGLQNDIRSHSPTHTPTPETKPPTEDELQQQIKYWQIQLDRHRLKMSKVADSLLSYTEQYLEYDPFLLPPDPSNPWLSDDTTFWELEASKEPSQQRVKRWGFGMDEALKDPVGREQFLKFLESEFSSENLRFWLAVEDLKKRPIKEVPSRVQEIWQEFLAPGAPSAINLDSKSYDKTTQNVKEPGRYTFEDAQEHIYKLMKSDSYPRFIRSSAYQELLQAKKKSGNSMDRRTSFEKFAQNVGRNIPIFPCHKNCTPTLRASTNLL
T1 sequence (O14775 43-395 partner limits assumed): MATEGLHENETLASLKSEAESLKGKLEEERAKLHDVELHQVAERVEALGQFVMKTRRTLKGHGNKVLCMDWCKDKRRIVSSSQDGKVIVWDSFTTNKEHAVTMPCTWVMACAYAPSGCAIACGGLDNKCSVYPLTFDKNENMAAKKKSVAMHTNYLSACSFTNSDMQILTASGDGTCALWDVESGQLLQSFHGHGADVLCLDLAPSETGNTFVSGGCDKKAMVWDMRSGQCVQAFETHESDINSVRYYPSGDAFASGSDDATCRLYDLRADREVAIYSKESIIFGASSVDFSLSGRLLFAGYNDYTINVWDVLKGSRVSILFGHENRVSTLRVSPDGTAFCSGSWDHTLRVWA

RGS7/Gβ5/R7BP complex [2] = target: T1, RGS7/Gβ5/R7BP complex; experiment: TR-FRET assay of RGS7/Gβ5 interaction with R7BP, activators mode; format: binding

NCCc1cc(O)c(O)cc1O [6-hydroxydopamine]
IC50 (RGS7/Gβ5/R7BP complex [1]; IC50, inhibition of complex formation, initial dose response studies): 7.65 ± 3.74 µM

O=C1CCCN1C(=S)C(=S)N1CCCC1=O [SR-01000319258–1, 1-[2-(2-oxopyrrolidin-1-yl)-2-sulfanylideneethanethioyl]pyrrolidin-2-one]
IC50 (RGS7/Gβ5/R7BP complex [1]): 0.173 µM
maximum inhibition (RGS7/Gβ5/R7BP complex [1]; tertiary screening, first HTS campaign, concentration response curves): 54.2 ± 0.84%

NC(=O)c1cc([N+](=O)[O-])cc([N+](=O)[O-])c1 [nitromide]
EC50 (RGS7/Gβ5/R7BP complex [2]): 0.76 ± 0.1 µM
